Measurements: the NIST ThermoML archive (doi:10.1021/je800110r)
Numbers after ± are expanded uncertainties.

Conditions: Liquid, Vibrating tube method

CCCCCCCCCC [decane]
Conditions	mass density [kg/m3]
333.15 K, 34442 kPa	727.7 ± 2.1
333.15 K, 34445 kPa	727.8 ± 2.1
333.16 K, 815 kPa	699.9 ± 2
333.16 K, 842 kPa	699.9 ± 2
333.16 K, 881 kPa	700 ± 2
333.16 K, 941 kPa	700 ± 2
333.16 K, 2806 kPa	701.9 ± 2
333.16 K, 2881 kPa	702 ± 2
333.16 K, 2921 kPa	701.9 ± 2
333.16 K, 3005 kPa	702 ± 2
333.16 K, 4814 kPa	703.9 ± 2
333.16 K, 4927 kPa	703.9 ± 2
333.16 K, 5007 kPa	704 ± 2
333.16 K, 5592 kPa	704.7 ± 2
333.16 K, 5608 kPa	704.7 ± 2
333.16 K, 5623 kPa	704.7 ± 2
333.16 K, 5704 kPa	704.7 ± 2
333.16 K, 5748 kPa	704.8 ± 2
333.16 K, 5756 kPa	704.7 ± 2
333.16 K, 5775 kPa	704.7 ± 2
333.16 K, 5795 kPa	704.8 ± 2
333.16 K, 5811 kPa	704.9 ± 2
333.16 K, 5830 kPa	704.8 ± 2
333.16 K, 5852 kPa	704.8 ± 2
333.16 K, 5874 kPa	704.9 ± 2
333.16 K, 5896 kPa	704.9 ± 2
333.16 K, 5917 kPa	705 ± 2
333.16 K, 5934 kPa	704.9 ± 2
333.16 K, 5956 kPa	704.9 ± 2
333.16 K, 5973 kPa	705 ± 2
333.16 K, 6001 kPa	704.9 ± 2
333.16 K, 6018 kPa	705 ± 2
333.16 K, 6045 kPa	704.9 ± 2
333.16 K, 6069 kPa	705.1 ± 2
333.16 K, 6092 kPa	705 ± 2
333.16 K, 6116 kPa	705.1 ± 2
333.16 K, 6643 kPa	705.5 ± 2
333.16 K, 6667 kPa	705.5 ± 2
333.16 K, 6688 kPa	705.6 ± 2
333.16 K, 6713 kPa	705.6 ± 2
333.16 K, 6738 kPa	705.6 ± 2
333.16 K, 6763 kPa	705.7 ± 2
333.16 K, 6796 kPa	705.7 ± 2
333.16 K, 6822 kPa	705.8 ± 2
333.16 K, 6844 kPa	705.8 ± 2
333.16 K, 7378 kPa	706.3 ± 2
333.16 K, 7414 kPa	706.2 ± 2
333.16 K, 7450 kPa	706.4 ± 2
333.16 K, 7482 kPa	706.3 ± 2
333.16 K, 7512 kPa	706.3 ± 2
333.16 K, 7550 kPa	706.4 ± 2
333.16 K, 7575 kPa	706.4 ± 2
333.16 K, 7610 kPa	706.5 ± 2
333.16 K, 7628 kPa	706.3 ± 2
333.16 K, 7651 kPa	706.4 ± 2
333.16 K, 7667 kPa	706.6 ± 2
333.16 K, 7693 kPa	706.5 ± 2
333.16 K, 7720 kPa	706.6 ± 2
333.16 K, 7744 kPa	706.6 ± 2
333.16 K, 7771 kPa	706.7 ± 2
333.16 K, 7795 kPa	706.6 ± 2
333.16 K, 7812 kPa	706.5 ± 2
333.16 K, 7830 kPa	706.6 ± 2
333.16 K, 7853 kPa	706.7 ± 2
333.16 K, 7871 kPa	706.8 ± 2
333.16 K, 7897 kPa	706.8 ± 2
333.16 K, 7918 kPa	706.7 ± 2
333.16 K, 7939 kPa	706.8 ± 2
333.16 K, 7960 kPa	706.7 ± 2
333.16 K, 7987 kPa	706.8 ± 2
333.16 K, 8006 kPa	706.9 ± 2
333.16 K, 8033 kPa	706.9 ± 2
333.16 K, 8049 kPa	706.9 ± 2
333.16 K, 8068 kPa	707 ± 2
333.16 K, 8410 kPa	707.1 ± 2
333.16 K, 8437 kPa	707.2 ± 2
333.16 K, 8464 kPa	707.2 ± 2
333.16 K, 8484 kPa	707.2 ± 2
333.16 K, 8592 kPa	707.4 ± 2
333.16 K, 8666 kPa	707.4 ± 2
333.16 K, 8688 kPa	707.6 ± 2
333.16 K, 8718 kPa	707.4 ± 2
333.16 K, 8769 kPa	707.5 ± 2
333.16 K, 8949 kPa	707.7 ± 2
333.16 K, 8971 kPa	707.7 ± 2
333.16 K, 9005 kPa	707.7 ± 2
333.16 K, 9029 kPa	707.7 ± 2
333.16 K, 9051 kPa	707.7 ± 2
333.16 K, 9073 kPa	707.8 ± 2
333.16 K, 9099 kPa	707.9 ± 2
333.16 K, 9121 kPa	707.7 ± 2
333.16 K, 9143 kPa	707.9 ± 2
333.16 K, 9169 kPa	707.8 ± 2
333.16 K, 9191 kPa	707.9 ± 2
333.16 K, 9214 kPa	707.9 ± 2
333.16 K, 9234 kPa	708 ± 2
333.16 K, 9254 kPa	707.9 ± 2
333.16 K, 9280 kPa	707.9 ± 2
333.16 K, 9303 kPa	708.1 ± 2
333.16 K, 9330 kPa	708 ± 2
333.16 K, 9521 kPa	708.1 ± 2
333.16 K, 9549 kPa	708.2 ± 2
333.16 K, 9737 kPa	708.4 ± 2
333.16 K, 9763 kPa	708.4 ± 2
333.16 K, 9789 kPa	708.4 ± 2
333.16 K, 9818 kPa	708.4 ± 2
333.16 K, 12216 kPa	710.6 ± 2
333.16 K, 12245 kPa	710.6 ± 2
333.16 K, 12280 kPa	710.7 ± 2
333.16 K, 12305 kPa	710.7 ± 2
333.16 K, 12351 kPa	710.7 ± 2
333.16 K, 12386 kPa	710.7 ± 2
333.16 K, 12427 kPa	710.8 ± 2
333.16 K, 12458 kPa	710.8 ± 2
333.16 K, 12492 kPa	710.8 ± 2
333.16 K, 12528 kPa	710.8 ± 2
333.16 K, 12561 kPa	710.9 ± 2
333.16 K, 12601 kPa	711 ± 2
333.16 K, 12638 kPa	710.9 ± 2
333.16 K, 12670 kPa	711 ± 2
333.16 K, 12704 kPa	711 ± 2
333.16 K, 12735 kPa	711 ± 2
333.16 K, 12766 kPa	711 ± 2
333.16 K, 12792 kPa	711.1 ± 2
333.16 K, 12824 kPa	711.1 ± 2
333.16 K, 13106 kPa	711.4 ± 2
333.16 K, 13133 kPa	711.4 ± 2
333.16 K, 13377 kPa	711.5 ± 2
333.16 K, 13399 kPa	711.4 ± 2
333.16 K, 13418 kPa	711.7 ± 2
333.16 K, 13441 kPa	711.6 ± 2
333.16 K, 13459 kPa	711.6 ± 2
333.16 K, 13476 kPa	711.7 ± 2
333.16 K, 13493 kPa	711.7 ± 2
333.16 K, 13510 kPa	711.7 ± 2
333.16 K, 13525 kPa	711.7 ± 2
333.16 K, 13537 kPa	711.6 ± 2
